Measurements reported in patent publication US20240173332A1, “BENZO[…] TREATING OR PREVENTING RESPIRATORY SYNCYTIAL VIRUS INFECTION” (Pfizer Inc., priority 2021, published 2024).
Like-named read-outs stand apart in the source and are kept apart here.

Key:
[1] = Hepatocyte stability, human; assay type: in vitro ADME; settings: cryopreserved pooled hepatocytes, 3 μM compound, 60 min, read-out: Liver Hepatocyte Stability t1/2
Method: (§1) Compounds were subjected to the following assays to investigate liver microsomal stability and hepatocyte stability.
(§2) Cryopreserved pooled hepatocytes were purchased from a reputable commercial supplier and stored in liquid nitrogen prior to use. Williams E media supplemented with 2 mM L-glutamine and 25 mM HEPES and test compound (final substrate concentration 3 μM; final DMSO concentration 0.25%) are pre-incubated at 37° C. prior to the addition of a suspension of cryopreserved hepatocytes (final cell density 0.5 ×10^6 viable cells/mL in Williams E media supplemented with 2 mM L-glutamine and 25 mM HEPES) to initiate the reaction. The final incubation volume is 500 μL. Two control compounds were included with each species, alongside appropriate vehicle control. The reactions were stopped by transferring 50 μL of incubate to 100 μL acetonitrile containing internal standard at the appropriate time points. Samples were removed at 6 time points (0, 5, 15, 30, 45 and 60 min) over the course of a 60 min experiment. The termination plates were centrifuged at 2500 rpm at 4° C. for 30 min to precipitate the protein.
(§3) Following protein precipitation, the sample supernatants were combined in cassettes of up to 4 compounds and analysed using generic LC-MS/MS conditions. From a plot of In peak area ratio (compound peak area/internal standard peak area) against time, the gradient of the line was determined. Subsequently, half-life (t1/2) and intrinsic clearance (CLint) were calculated.

[2] = Hepatocyte stability, rat; assay type: in vitro ADME; settings: cryopreserved pooled hepatocytes, 3 μM compound, 60 min, read-out: Liver Hepatocyte Stability t1/2
Method: as §1, §2, §3

[3] = tested on: RSV A2; assay: RSV plaque reduction assay in Hep-G2 cells; assay type: cell-based, respiratory syncytial virus (RSV); settings: human respiratory syncytial virus, HepG2, 48 h, Hep-G2 cells, RSV A2, 2 days; mean of at least two experiments; read-out: RSV A2 Plaque EC50
Method: Compounds were subjected to RSV plaque reduction assays according to the following protocol. Plaque EC50 and cell toxicity CC50 values are a mean of at least two experiments and figures are rounded to whole units.
Hep-G2 cells (ECACC, 85011430) were passaged in flasks and seeded in 24-well plates in DMEM containing antibiotics and supplemented with 10% FBS. During inoculation and subsequent incubation, cells were cultured in DMEM containing 2% FBS. 100 plaque forming unit/well of RSV (RSV A2 ECACC, 0709161v) was mixed with eight serial dilutions of compound. Subsequently, 100 μL of the virus/compound mixtures was added to confluent Hep-G2 cell monolayers. The cells and virus/compound mixtures were incubated at 37° C. in a humidified 5% CO2 incubator for 2 h prior to removal of the inoculum and addition of 1 mL of overlay (DMEM containing 2% FBS and 0.8% CMC) containing compound dilutions. The cells and were incubated at 37° C. in a humidified 5% CO2 incubator for 2 days.
Cells were washed with PBS before adding 75/25% v/v EtOH/MeOH, for 3 min. Fixative was removed and plates were washed with PBS. A pre-titrated amount of the primary antibody was added in 200 μL PBS/2% milk powder, and plates incubated for 90 min at 37° C. The plates were washed 3 times with PBS/0.05% Tween20 before addition of rabbit anti-goat horse radish peroxidase in 200 μL PBS/2% milk powder, and incubated for 1 h at 37° C. Following three wash steps with PBS/0.05% Tween20, 200 μL ready-to-use TrueBlue was added and plates were incubated at rt for 10-15 min before washing with water. After removal of water, plates were air-dried in the dark. Plates were scanned and analysed using the Immunospot S6 Macro analyser, which is equipped with BioSpot analysis software for counting immunostained plaques (virospots). Plaque counts were used to calculate % infection relative to the mean of the plaque count in the virus control wells for RSV. The EC50 value was calculated as 50% reduction in signal, respectively, by interpolation of inhibition curves fitted with a 4-parameter nonlinear regression with a variable slope in Dotmatics. Plaque EC50 and cell toxicity CC50 values are a mean of at least two experiments and figures are rounded to whole units.

[4] = Liver microsomal stability, dog; assay type: in vitro ADME; settings: pooled liver microsomes, pH 7.4, 0.5 mg/mL protein, 1 μM compound, NADPH, read-out: Liver Microsomal Stability t1/2
Method: as §1
(§4) Pooled liver microsomes were purchased from a reputable commercial supplier and stored at −80° C. prior to use. Microsomes (final protein concentration 0.5 mg/mL), 0.1 M phosphate buffer pH 7.4 and test compound (final substrate concentration 1 μM; final DMSO concentration 0.25%) were pre-incubated at 37° C. prior to the addition of NADPH (final concentration 1 mM) to initiate the reaction. The final incubation volume was 50 μL. A control incubation was included for each compound tested where 0.1 M phosphate buffer pH 7.4 was added instead of NADPH (minus NADPH). Two control compounds were included with each species. All incubations were performed singularly for each test compound. Each compound was incubated for 0, 5, 15, 30 and 45 min. The control (minus NADPH) was incubated for 45 min only. The reactions were stopped by transferring incubate into acetonitrile at the appropriate time points, in a 1:3 ratio. The termination plates are centrifuged at 3,000 rpm for 20 min at 4° C. to precipitate the protein. Following protein precipitation, the sample supernatants were combined in cassettes of up to 4 compounds, internal standard added, and samples analysed by LC-MS/MS. From a plot of In peak area ratio (compound peak area/internal standard peak area) against time, the gradient of the line was determined. Subsequently, half-life (t1/2) and intrinsic clearance (CLint) were calculated.

[5] = Hepatocyte stability, dog; assay type: in vitro ADME; settings: cryopreserved pooled hepatocytes, 3 μM compound, 60 min, read-out: Liver Hepatocyte Stability t1/2
Method: as §1, §2, §3

[6] = Liver microsomal stability, human; assay type: in vitro ADME; settings: pooled liver microsomes, pH 7.4, 0.5 mg/mL protein, 1 μM compound, NADPH, read-out: Liver Microsomal Stability t1/2
Method: as §1, §4

[7] = Cell cytotoxicity CC50; assay type: cell-based; settings: human, Hep-G2 cells; mean of at least two experiments unless (n = 1)
[8] = Liver microsomal stability, rat; assay type: in vitro ADME; settings: pooled liver microsomes, pH 7.4, 0.5 mg/mL protein, 1 μM compound, NADPH, read-out: Liver Microsomal Stability t1/2
Method: as §1, §4

[9] = tested on: RSV; settings: Antimicrobial Agents and Chemotherapy, Sept. 2007, 3346-3353; cited from earlier work
[10] = In vivo pharmacokinetics in rats (IV and PO); design: species or system Male rats [Sprague Dawley (SD)]; settings: male SD rat; for half-life / Vd / clearance / Cmax / AUC(0-t): Sprague Dawley, plasma; for Vd / clearance / Cmax: study IV 1 mg/kg; for Cmax: route not given; for AUC(0-t): read-out: PO AUClast; for F: PO 10 mg/kg vs IV 1 mg/kg
Method: The pharmacokinetics of compounds were studied in vivo in rats at doses of 1 mg/kg (IV) and 10 mg/kg (PO).
Male rats [Sprague Dawley (SD)] surgically prepared with a jugular vein cannula were treated with experimental compounds via intravenous administration (IV; n=3; 1 mg/kg) or oral administration (PO; n=3; 10 mg/kg). Compounds were formulated as a solution in 40:60 dimethylacetamide:saline (IV administration) and a solution of 10% DMSO, 10% cremaphor in water (80%) (PO administration). […] Serial blood samples were collected via the cannula at 0.02, 0.08, 0.25, 0.5, 1, 2, 4, 6, 8 and 24 h post IV dosing of compound, and at 0.08, 0.25, 0.5, 1, 2, 4, 6, 8 and 24 h post oral dosing of compound, and plasma was prepared by centrifugation and stored immediately at −80° C. Samples were subsequently thawed, prepared for analysis by protein precipitation with acetonitrile, and analysed by tandem LCMS using electrospray ionisation using a matrix-matched calibration curve. PK parameters were calculated from the resulting data.

[11] = IV 1 mg/kg, read-out: IV t1/2 (converted)
[12] = PO 10 mg/kg, read-out: PO t1/2 (converted)

Compound	half-life at 3 μM [1] [h]	half-life at 3 μM [2] [h]	EC50 [3] [nM]	half-life at 1 μM [4] [h]	half-life at 3 μM [5] [h]	half-life at 1 μM [6] [h]	CC50 [7] [nM]	half-life at 1 μM [8] [h]	anti-RSV activity [9]	half-life [10, 11] [h]	half-life [10, 12] [h]	Vd ([10]; PO 10 mg/kg) [L/kg]	clearance ([10]; PO 10 mg/kg) [mL/min/kg]	Cmax ([10]; PO 10 mg/kg) [ng/mL]	AUC(0-t) ([10]; PO 10 mg/kg) [ng·h/mL]	F [10] [%]
O=C(N[C@H]1N=C(c2ccccc2)c2cccc(F)c2NC1=O)c1c(-c2cccc(CO)c2F)nn2cccnc12 [Example 18, 2-[2-Fluoro-3-(hydroxymethyl)phenyl]-N-[(3S)-9-fluoro-2-oxo-5-phenyl-1,3-dihydro-1,4-benzodiazepin-3-yl]pyrazolo[1,5-a]pyrimidine-3-carboxamide]	> 3	1.57	44	6.5	> 3	8.83	> 25000	0.983	–	–	–	–	–	–	–	–
O=C(Nc1ccccc1F)N[C@H]1N=C(c2ccccc2)c2ccccc2NC1=O [RSV604]	–	–	–	–	–	–	–	–	sub-micromolar	–	–	–	–	–	–	–
O=C(N[C@H]1N=C(c2ccccc2)c2cccc(F)c2NC1=O)c1c(-c2ccc(CO)cc2F)nn2cccnc12 [Example 1, 2-[2-Fluoro-4-(hydroxymethyl)phenyl]-N-[(35)-9-fluoro-2-oxo-5-phenyl-1,3-dihydro-1,4-benzodiazepin-3-yl]pyrazolo[1,5-a]pyrimidine-3-carboxamide]	5.55	1.38	18	10.6	2.62	5.48	> 25000	0.69	–	1.5	3.1	0.75	11.5	788	3880	25.6
CC(C)n1cc(-c2nn3cccnc3c2C(=O)N[C@H]2N=C(c3ccccc3)c3cccc(F)c3NC2=O)cn1 [Example 4, N-[(3S)-9-fluoro-2-oxo-5-phenyl-1,3-dihydro-1,4-benzodiazepin-3-yl]-2-(1-propan-2-ylpyrazol-4-yl)pyrazolo[1,5-a]pyrimidine-3-carboxamide]	3.78	2.17	37	2.62	1.4	6.58	> 25000	2.63	–	4.4	3.7	0.49	1.9	4790	57100	54.6
